Columns and labels:
Experiment in all cases: relative viability (nuclei count vs DMSO), 5 days (fraction); higher = more cells survive
NCI-H2347 = system: NCI-H2347
In short: (§1)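 Lung cancer cell lines were seeded in 1536-well plates and dosed by pin tool the next day, with either a single drug or a fixed anchor-drug dose combined with five library-drug doses (not always all listed) spaced in √10 steps. Five days later, one step fixed the cells and stained their nuclei (final 0.05% Triton X-100, 1% formaldehyde, 1 ug/ml Hoechst), and nuclei were counted on 4× images. Relative viability is the nuclei count in treated wells divided by the count in vehicle wells, and each value is the median of duplicate plates.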

NCI-H838 = system: NCI-H838
In short: as §1

NCI-H2009 = system: NCI-H2009
In short: as §1

NCI-H1993 = system: NCI-H1993
In short: as §1

SK-MES-1 = system: SK-MES-1
In short: as §1

PC-14 = system: PC-14
In short: as §1

NCI-H1355 = system: NCI-H1355
In short: as §1

NCI-H1755 = system: NCI-H1755
In short: as §1

NCI-H1734 = system: NCI-H1734
In short: as §1

NCI-H2228 = system: NCI-H2228
In short: as §1

HCC-15 = system: HCC-15
In short: as §1

HARA = system: HARA
In short: as §1

NCI-H2170 = system: NCI-H2170
In short: as §1

COR-L23 = system: COR-L23
In short: as §1

HOP-62 = system: HOP-62
In short: as §1

UMC-11 = system: UMC-11
In short: as §1

EKVX = system: EKVX
In short: as §1

COR-L 105 = system: COR-L 105
In short: as §1

NCI-H647 = system: NCI-H647
In short: as §1

NCI-H358 = system: NCI-H358
In short: as §1

Work on `Oc1nc(-c2ccc(C(F)(F)F)cc2)nc2c1CSCC2` [XAV939] + C[C@@H](Oc1cc(-c2cnn(C3CCNCC3)c2)cnc1N)c1c(Cl)ccc(F)c1Cl [Crizotinib] (partner 1 µM) yielded a relative viability (NCI-H2347; first compound 0.08 µM) of 0.692, a relative viability (NCI-H2347; first compound 0.253 µM) of 0.648 and a relative viability (NCI-H2347; first compound 0.8 µM) of 0.75. It also gave a relative viability (NCI-H2347; first compound 2.53 µM) of 0.515, a relative viability (NCI-H838; first compound 0.08 µM) of 0.875 and a relative viability (NCI-H838; first compound 0.253 µM) of 0.719. For the same molecule, the relative viability (NCI-H838; first compound 0.8 µM) was 0.759, the relative viability (NCI-H838; first compound 2.53 µM) was 0.432 and the relative viability (NCI-H2009; first compound 0.08 µM) was 1.12. It also gave a relative viability (NCI-H2009; first compound 0.253 µM) of 1.04, a relative viability (NCI-H2009; first compound 0.8 µM) of 1.01 and a relative viability (NCI-H2009; first compound 2.53 µM) of 0.96. For the same molecule, the relative viability (NCI-H1993; first compound 0.8 µM) was 0.85, the relative viability (NCI-H1993; first compound 2.53 µM) was 0.768 and the relative viability (SK-MES-1; first compound 0.08 µM) was 1.02. The relative viability (SK-MES-1; first compound 0.253 µM) was 0.934, the relative viability (SK-MES-1; first compound 0.8 µM) was 0.882 and the relative viability (SK-MES-1; first compound 2.53 µM) was 0.842. It also gave a relative viability (PC-14; first compound 0.08 µM) of 0.97, a relative viability (PC-14; first compound 0.253 µM) of 0.818 and a relative viability (PC-14; first compound 0.8 µM) of 0.834. It also gave a relative viability (PC-14; first compound 2.53 µM) of 0.749, a relative viability (NCI-H1355; first compound 0.08 µM) of 1.05 and a relative viability (NCI-H1355; first compound 0.253 µM) of 0.9. The relative viability (NCI-H1355; first compound 0.8 µM) was 0.828, the relative viability (NCI-H1355; first compound 2.53 µM) was 0.725 and the relative viability (NCI-H1755; first compound 0.08 µM) was 0.832. It also gave a relative viability (NCI-H1755; first compound 0.253 µM) of 0.731, a relative viability (NCI-H1755; first compound 0.8 µM) of 0.778 and a relative viability (NCI-H1755; first compound 2.53 µM) of 0.762. It also gave a relative viability (NCI-H1734; first compound 0.08 µM) of 0.725, a relative viability (NCI-H1734; first compound 0.253 µM) of 0.637 and a relative viability (NCI-H1734; first compound 0.8 µM) of 0.662. It also gave a relative viability (NCI-H1734; first compound 2.53 µM) of 0.619, a relative viability (NCI-H2228; first compound 0.08 µM) of 0.431 and a relative viability (NCI-H2228; first compound 0.253 µM) of 0.438. The relative viability (NCI-H2228; first compound 0.8 µM) was 0.464, the relative viability (NCI-H2228; first compound 2.53 µM) was 0.398 and the relative viability (HCC-15; first compound 0.08 µM) was 0.968. For the same molecule, the relative viability (HCC-15; first compound 0.253 µM) was 0.746, the relative viability (HCC-15; first compound 0.8 µM) was 0.823 and the relative viability (HCC-15; first compound 2.53 µM) was 0.743. The relative viability (HARA; first compound 0.08 µM) was 1.14, the relative viability (HARA; first compound 0.253 µM) was 0.785 and the relative viability (HARA; first compound 0.8 µM) was 1.05. For the same molecule, the relative viability (HARA; first compound 2.53 µM) was 0.932, the relative viability (NCI-H2170; first compound 0.08 µM) was 1.28 and the relative viability (NCI-H2170; first compound 0.253 µM) was 1.01. For the same molecule, the relative viability (NCI-H2170; first compound 0.8 µM) was 1.02, the relative viability (NCI-H2170; first compound 2.53 µM) was 0.921 and the relative viability (COR-L23; first compound 0.08 µM) was 0.77. The relative viability (COR-L23; first compound 0.253 µM) was 0.675, the relative viability (COR-L23; first compound 0.8 µM) was 0.671 and the relative viability (COR-L23; first compound 2.53 µM) was 0.555. The relative viability (HOP-62; first compound 0.08 µM) was 0.972, the relative viability (HOP-62; first compound 0.253 µM) was 0.862 and the relative viability (HOP-62; first compound 0.8 µM) was 0.906. It also gave a relative viability (HOP-62; first compound 2.53 µM) of 0.727, a relative viability (UMC-11; first compound 0.08 µM) of 0.777 and a relative viability (UMC-11; first compound 0.8 µM) of 0.578. It also gave a relative viability (UMC-11; first compound 2.53 µM) of 0.414, a relative viability (EKVX; first compound 0.08 µM) of 1.09 and a relative viability (EKVX; first compound 0.253 µM) of 0.95. It also gave a relative viability (EKVX; first compound 0.8 µM) of 0.975, a relative viability (EKVX; first compound 2.53 µM) of 0.586 and a relative viability (COR-L 105; first compound 0.08 µM) of 0.821. For the same molecule, the relative viability (COR-L 105; first compound 0.253 µM) was 0.762, the relative viability (COR-L 105; first compound 0.8 µM) was 0.698 and the relative viability (COR-L 105; first compound 2.53 µM) was 0.621. The relative viability (NCI-H647; first compound 0.08 µM) was 1.07, the relative viability (NCI-H647; first compound 0.253 µM) was 1 and the relative viability (NCI-H647; first compound 0.8 µM) was 1.11. It also gave a relative viability (NCI-H647; first compound 2.53 µM) of 0.9, a relative viability (NCI-H358; first compound 0.08 µM) of 0.729 and a relative viability (NCI-H358; first compound 0.253 µM) of 0.45. It also gave a relative viability (NCI-H358; first compound 0.8 µM) of 0.563 and a relative viability (NCI-H358; first compound 2.53 µM) of 0.573.
